Assays:
[1] = tested on: primary human hepatocytes; test: Cytotoxicity assay on primary human hepatocytes (CellTiter-Glo, 48 h); assay type: cell-based; conditions: Hepatocyte, cell viability, 48 h incubation
Description: Example 26: Cytotoxicity Assay of Compounds on Primary Human Hepatocytes
Primary human hepatocytes were purchased from Biorecamation IVT. Co., Ltd. (lot no.: AKB/S1391); the components of in vitro culture media of primary human cell and suppliers are as follows:
1. Frozen primary human hepatocytes were thawed, then resuspended in a culture medium containing 10% FBS. The cells were transferred into a 96-well plate, at 8×10^4 cells/well, followed by incubating overnight in an incubator at 5% CO2 at 37° C.;
2. […] The test compounds and control drug were added to wells, at 100 μL/well, to form test compound wells or reference wells, and the culture medium containing 10% FBS was added to wells, at 100 μL/well, as negative control. The cells were incubated in an incubator in the presence of 5% CO2 at 37° C. for 48 h.
3. The primary human hepatocytes were washed with PBS (0.1 M, pH=7.4) twice, and were added with CellTiter-Glo reagent at 100 μL/well. Cell-free wells added with CellTiter-Glo reagent at 100 μL/well served as the blank control. The 96-well plate was shaken on a shaker for 5 min, and then left at room temperature for 10 min.
4. The chemiluminescence values were detected using Victor X4 (Perkin Elmer). The chemiluminescence values of the test compound wells were denoted as F(test compound), the chemiluminescence values of the blank control wells were denoted as F(blank), and the chemiluminescence values of the negative control wells were denoted as F(negative control). The cell viabilities at different concentrations were calculated according to the following formula. Each concentration was measured in triplicate to give the average and the standard deviation.
5. The half maximal inhibitory concentration (IC50) of the test compounds to the primary human hepatocytes were calculated using Prism Graph software.

hURAT1 = target: T1, hURAT1 (Homo sapiens, UniProt Q96S37); test: Inhibition of 14C-uric acid uptake by hURAT1 in HEK293-transfected cells; assay type: cell-based; conditions: HEK-293T cells stably expressing hURAT1, 14C-uric acid uptake, 5 min at 37° C.
T1 construct: expressed in transfected cells
T1 sequence (Q96S37 1-553): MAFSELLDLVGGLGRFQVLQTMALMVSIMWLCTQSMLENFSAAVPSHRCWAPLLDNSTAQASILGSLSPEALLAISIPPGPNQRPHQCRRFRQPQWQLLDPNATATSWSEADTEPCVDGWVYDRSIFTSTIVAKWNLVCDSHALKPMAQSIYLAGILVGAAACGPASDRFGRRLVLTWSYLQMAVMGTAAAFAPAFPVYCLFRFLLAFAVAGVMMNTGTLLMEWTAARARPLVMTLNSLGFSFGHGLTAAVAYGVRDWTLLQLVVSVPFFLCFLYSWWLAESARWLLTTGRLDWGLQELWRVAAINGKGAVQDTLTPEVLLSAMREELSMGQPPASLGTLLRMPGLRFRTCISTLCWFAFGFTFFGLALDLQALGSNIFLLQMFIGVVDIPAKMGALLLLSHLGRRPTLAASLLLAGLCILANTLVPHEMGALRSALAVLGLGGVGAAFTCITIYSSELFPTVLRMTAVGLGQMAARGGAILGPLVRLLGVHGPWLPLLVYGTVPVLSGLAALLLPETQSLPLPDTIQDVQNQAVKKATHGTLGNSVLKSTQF
Description: 1. Cell Culture and Inoculation
2) When the cells covered 80% of the culture medium, the culture medium was removed. The cells were washed with PBS once, followed by digestion with pancreatin-EDTA. After detachment, the cells were added with a culture medium, exfoliated by pipetting, and centrifuged for harvesting. The harvested cells were added with a culture medium and mixed well to give a cell suspension.
3) The cell density was adjusted to 3×10^5 cells/mL, transferred into a white-wall, clear-bottom, 96-well cell culture plate with 100 μL/well, and incubated for 12-24 h.
1) A 20 mM stock solution of the compound was prepared with DMSO. Then the stock solution was diluted to a starting concentration of 2 mM with DMSO.
2) The solution was serially 4-fold diluted with DMSO from […] to the 10th concentration on a 96-well plate serving as the 100× plate, and respective quality controls were prepared.
3) The solutions in corresponding wells were 10-fold diluted with Cl-free HBSS buffer on another 96-well plate serving as the 10× plate.
4) Buffer containing 0.1 μCi/mL ^14C-uric acid, at 45 μL/well, and a 10× diluted compound, at 5 μL/well, were added to a third 96-well plate serving as the 1× plate for later use. The concentration of DMSO was 1%.
3. Uptake of ^14C-Uric Acid in Cells Stably Expressing hURAT1
1) The uptake assay was performed after the cultivated cells in 96-well plates adhered.
2) The cells were washed once with pre-heated buffer at 200 μL/well.
3) After the wells were dried, corresponding compounds (50 μL/well) and 0.1 μCi/mL ^14C-uric acid were immediately added.
4) The plate with the compound was incubated in a 37° C. incubator for 5 min.
5) 150 μL of ice-cold buffer was added to each well to terminate the uptake. Each well was washed three times with buffer. The cells were carefully washed to avoid detachment.
6) 50 μL of lysis buffer was added to each well, prior to shaking at 900 rpm on an oscillator for 5 min.
7) 150 μL of scintillation solution (Microint 40) was added to each well before shaking at 900 rpm for 5 min.
8) Finally, the microwell plate was transferred to a MicroBeta Trilux (PerkinElmer Co. Ltd.) for detection.
The data were analyzed and the IC50 of the quality controls and all test compounds on the plates were calculated using XL-fit software.

| IC50 (hURAT1) | Compound | IC50 [1] |
| --- | --- | --- |
| – | CCc1oc2ccccc2c1C(=O)c1cc(Br)c(O)c(Br)c1 [Benzbromarone, reference compound] | 6.65 µM |
| < 0.05 µM | CCc1oc2ccncc2c1C(=O)c1cc(Br)c(O)c(Br)c1 [Example 1, (3,5-dibromo-4-hydroxyphenyl)(2-ethylfuro[3,2-c]pyridin-3-yl) methanone] | – |
| 0.05 to 0.2 µM | CCn1nc2ccc(F)cc2c1C(=O)c1cc(Br)c(O)c(Br)n1 [Example 8, (4,6-dibromo-5-hydroxypyridin-2-yl)(2-ethyl-5-fluoro-2H-indazol-3-yl)methanone] | – |

From US11453674B2, “Heterocyclic compound, preparation method and use thereof in medicine” (SUZHOU SINOVENT PHARMACEUTICALS CO., LTD., priority 2019, dated 2022)
